The results in this text go back to publication PMC5641094, “A peptide antagonist of Prep1-p160 interaction improves ceramide-induced insulin resistance in skeletal muscle cells” (Oncotarget, 2017).

For one experiment, the target named is T1, Prep1/p160 complex (Rattus norvegicus, UniProt O35821).
T1 construct: endogenous in cells; host or cells: L6 rat skeletal muscle cells
T1 sequence (O35821 1-1344): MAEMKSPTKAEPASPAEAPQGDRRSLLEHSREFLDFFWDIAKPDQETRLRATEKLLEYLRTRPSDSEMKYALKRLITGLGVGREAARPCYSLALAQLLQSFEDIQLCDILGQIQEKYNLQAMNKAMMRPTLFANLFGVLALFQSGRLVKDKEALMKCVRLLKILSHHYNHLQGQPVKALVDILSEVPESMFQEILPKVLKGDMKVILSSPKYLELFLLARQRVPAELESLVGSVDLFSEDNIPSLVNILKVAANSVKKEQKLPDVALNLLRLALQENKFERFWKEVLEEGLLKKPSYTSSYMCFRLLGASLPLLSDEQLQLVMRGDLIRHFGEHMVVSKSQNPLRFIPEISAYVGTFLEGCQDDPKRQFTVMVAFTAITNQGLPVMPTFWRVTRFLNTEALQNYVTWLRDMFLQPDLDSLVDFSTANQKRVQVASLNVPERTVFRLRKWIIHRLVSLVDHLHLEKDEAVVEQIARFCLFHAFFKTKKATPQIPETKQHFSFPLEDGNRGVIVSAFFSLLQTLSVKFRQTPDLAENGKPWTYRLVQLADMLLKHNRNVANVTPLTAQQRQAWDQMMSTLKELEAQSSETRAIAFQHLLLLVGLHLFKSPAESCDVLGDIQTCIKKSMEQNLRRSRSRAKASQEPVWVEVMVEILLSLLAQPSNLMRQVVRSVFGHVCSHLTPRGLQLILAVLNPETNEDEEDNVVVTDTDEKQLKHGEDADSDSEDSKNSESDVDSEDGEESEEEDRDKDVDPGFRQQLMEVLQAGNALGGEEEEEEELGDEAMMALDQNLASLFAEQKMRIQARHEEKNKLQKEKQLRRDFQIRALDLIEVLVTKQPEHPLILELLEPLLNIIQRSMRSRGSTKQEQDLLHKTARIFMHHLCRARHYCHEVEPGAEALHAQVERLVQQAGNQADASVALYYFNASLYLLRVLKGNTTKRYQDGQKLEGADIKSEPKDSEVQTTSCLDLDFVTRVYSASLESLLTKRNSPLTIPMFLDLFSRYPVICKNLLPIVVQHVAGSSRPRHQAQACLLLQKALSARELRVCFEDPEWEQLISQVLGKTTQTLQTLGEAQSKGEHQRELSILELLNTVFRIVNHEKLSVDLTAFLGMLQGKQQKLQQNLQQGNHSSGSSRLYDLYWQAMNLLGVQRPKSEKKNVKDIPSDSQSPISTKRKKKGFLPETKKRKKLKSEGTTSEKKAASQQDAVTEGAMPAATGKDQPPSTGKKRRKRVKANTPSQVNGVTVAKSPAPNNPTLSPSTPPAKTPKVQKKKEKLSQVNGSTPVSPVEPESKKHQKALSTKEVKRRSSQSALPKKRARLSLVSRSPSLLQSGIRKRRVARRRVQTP
The experiment is described as follows: Prep1-p160 co-immunoprecipitation in L6 cells. It is filed as cell-based. As for the experimental part: Figure 2 Effect of ceramides on Prep1 and p160 mRNA expression and of Prep1-p160 coprecipitation L6 cells were treated with C2cer (10μM) for 18h and Prep1 (A) or p160 (B) mRNA levels were analyzed by real-time RT-PCR analysis. Data were normalized by the amount of GAPDH mRNA, used as internal control. Bars represent the mean ± SD of three independent experiments, each performed in triplicate. (C) L6 cells were treated with cycloheximide (CHX) at 40μg/mL concentration for 18h and the lysates were analyzed by Western blot with anti-p160 and beta-actin. The autoradiograph shown is representative of three different experiments and subjected to densitometric analysis. […]
Figure 3 Design and in vitro effects of Prep1(54-72) peptide on Prep1/p160 association (A) Binding curves of Prep1(59-72) and Prep1(54-72) peptides to p160_20-160 by ELISA-like assays. […] (C) L6 cells were incubated with increasing concentrations of the fluorescein-conjugated peptide (FITC-Prep1(54-72)) and peptide uptake was detected by FACS analysis of fluorescein-labeled cells. […] Protein lysates were immunoprecipitated with Prep1 antibodies and analyzed by Western blot using antibodies for p160 or for Prep1. […] The blots were detected by ECL and autoradiography. […]
Total cell lysates were obtained and separated by SDS-PAGE. […] The protein concentrations in the cell lysates were measured using a Bio-Rad DC (detergent compatible) assay. […]

The next experiment relates to Prep1 mRNA. As to the kind of experiment: Real-time RT-PCR of Prep1 mRNA in L6 cells. It is filed as cell-based, rat. The following applies: C2cer 10μM, 18h, normalized to GAPDH, three experiments in triplicate. As to the method:
Figure 2 Effect of ceramides on Prep1 and p160 mRNA expression and of Prep1-p160 coprecipitation L6 cells were treated with C2cer (10μM) for 18h and Prep1 (A) or p160 (B) mRNA levels were analyzed by real-time RT-PCR analysis. Data were normalized by the amount of GAPDH mRNA, used as internal control. Bars represent the mean ± SD of three independent experiments, each performed in triplicate. (C) L6 cells were treated with cycloheximide (CHX) at 40μg/mL concentration for 18h and the lysates were analyzed by Western blot with anti-p160 and beta-actin. The autoradiograph shown is representative of three different experiments and subjected to densitometric analysis. (D) Protein lysates from L6 cells treated with C2cer as indicated, were immunoprecipitated with Prep1 antibody and immunoblotted with p160 or Prep1 antibodies. The autoradiograph shown is representative of three different experiments and subjected to densitometric analysis. Asterisks denote statistically significant differences (*p<0.05; **p<0.01).
Total cellular RNA was isolated from L6 cells by using the RNeasy kit (QIAGEN Sciences, Germany), according to manufacturer instructions. 1μg of cell RNA was reverse-transcribed using Superscript III Reverse Transcriptase (Life Technologies Carlsbad, CA, USA). PCR reactions were analyzed using IQTM SYBR Green Supermix (Bio-Rad, Hercules, CA). […]
For orientation: Quantitative PCR measures a nucleic acid by following its amplification.

For `CCCCCCCCCCCCC/C=C/[C@@H](O)[C@H](CO)NC(C)=O` [C2cer, D-erythro-Sphingosine, N-Acetyl-, reference compound], the “induction of Prep1-p160 association” value on Prep1/p160 complex (C2cer) came to 80%. The “increase of Prep1 mRNA levels” value with Prep1 mRNA is on record as 3.2 fold.
“Ac-KQAIYRHPLFPLLALLFEK-NH2 [Prep1(54-72)]”: the “effect on ceramide-stimulated Prep1-p160 co-precipitation” value at Prep1/p160 complex (C2cer 10μM 18h, incubated with Prep1(54-72)) was “almost completely reverted”.
